Results published in patent US4386099A, “Imidazolylphenyl amidines, pharmaceutical compositions containing same and use thereof” (Istituto de Angeli S.p.A., priority 1980, dated 1983).
Where two headings read alike, the source gives them in different places.

Tests used:
histamine H2-receptors [1] = molecular target: T1, histamine H2-receptors (Cavia porcellus, UniProt P47747); experiment: In vitro inhibitory activity in histamine-induced tachycardia (positive chronotropic effect, isolated guinea pig atria); assay type: cell-based; conditions: reduction of histamine (10^-6 g/ml) H2-evoked response, pH 7.4, 32° C.
T1 construct: isolated guinea pig atria suspended in an organ bath; from tissue; host or cells: isolated guinea pig atria
Experimental: The positive chronotropic effect has been investigated in isolated guinea pig atria suspended in an organ bath (50 ml) containing oxygenated (O2 : 95%, CO2 : 5%) Krebs-Henseleit solution (pH 7.4) maintained at 32° C. The myocardial preparation, loaded at 1 gm of isometric tension, is allowed to stabilize for 60 minutes and myocardial contractions are recorded through an isometric lever connected to a strain-gauge coupler. The instantaneous rate is monitored with a cardiotachymeter and a heat-writing pen recorder. After a control run, responses (tachycardia) to histamine (10^-6 g/ml) are obtained three times at 30 minute intervals. The test compounds are added to the bath to the desired final concentration, and the atria are again injected with histamine. The chronotropic response obtained in the presence of the antagonist is then compared to the control response to histamine, and the percent reduction of the histamine H2 -evoked response is calculated. […] 3 Smooth Muscle, Ed Daniel E. E. Patron, M., Plenum Press. New York (1975), and Ash and Schild, Br. J. Pharmacol. Chemother. 27 427-439 (1966).

histamine H2-receptors [2] = molecular target: T2, histamine H2-receptors (Rattus norvegicus, UniProt P25102); experiment: In vivo anti-secretory activity in histamine-induced gastric secretion (stomach perfused rat); conditions: iv
T2 construct: from tissue; host or cells: stomach of the anaesthetised rat, in vivo
Experimental: The preparation of the animals in general anaesthesia (urethane, 1 gm/kg i.p.) and constant temperature, is achieved by inserting and typing in place polyethyl tubes (PE 50) in the esophagus and in the pyloric-antral region. After the stomach is washed to remove residual food, continuous perfusion of the stomach is started with saline, 0.5 ml/min (37° C.), primed by a Jobling peristaltic pump. After 30 minutes of perfusion adaptation, the stomach perfusate is collected in 30 minute samples, and the samples are titrated for acid content, expressed as μEq of 1 N NaOH. As acid output becomes constant, as a control, intravenous perfusion of histamine (1 mg/kg.hr) is started and maintained throughout the experimental period. […] The ED50 values are then calculated by standard procedure.

H2-receptor [3] = conditions: cited from earlier work; for Potency as H2-receptor antagonist: in vitro testing, vs cimetidine
[4] = in vivo; cited from earlier work
[5] = in vivo; cited from earlier work; remark: listed apart in the source
H2-receptor [6] = conditions: in man, vs burimamide; cited from earlier work
[7] = in vivo; cited from earlier work; remark: listed apart in the source
gastric acid secretion = conditions: in vivo testing, vs cimetidine; cited from earlier work
[8] = stomach perfused rat, histamine 1 mg/kg.hr i.v., expressed with regard to the compound as a base, read-out: ED50

T1 sequence (P47747 whole entry): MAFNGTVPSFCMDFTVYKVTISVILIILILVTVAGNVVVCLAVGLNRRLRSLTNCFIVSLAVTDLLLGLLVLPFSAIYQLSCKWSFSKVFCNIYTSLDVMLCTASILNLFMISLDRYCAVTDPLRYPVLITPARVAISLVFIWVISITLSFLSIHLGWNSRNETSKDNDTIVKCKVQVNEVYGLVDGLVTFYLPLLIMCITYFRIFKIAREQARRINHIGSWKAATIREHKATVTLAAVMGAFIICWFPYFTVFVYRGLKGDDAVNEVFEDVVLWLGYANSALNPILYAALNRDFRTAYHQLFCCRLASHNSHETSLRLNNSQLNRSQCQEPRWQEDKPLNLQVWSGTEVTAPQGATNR
T2 sequence (P25102 whole entry, the tested form may be a part): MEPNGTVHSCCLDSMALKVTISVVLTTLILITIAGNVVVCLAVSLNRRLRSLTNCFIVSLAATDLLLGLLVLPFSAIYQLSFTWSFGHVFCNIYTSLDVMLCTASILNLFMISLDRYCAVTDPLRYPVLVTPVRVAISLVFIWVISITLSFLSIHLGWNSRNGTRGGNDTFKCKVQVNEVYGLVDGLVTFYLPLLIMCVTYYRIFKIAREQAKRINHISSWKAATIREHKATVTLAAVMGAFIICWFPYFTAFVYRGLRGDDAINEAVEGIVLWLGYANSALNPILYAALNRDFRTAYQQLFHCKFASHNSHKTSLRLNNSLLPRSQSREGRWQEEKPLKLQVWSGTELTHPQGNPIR

CC(C)NC=Nc1ccc(-c2c[nH]cn2)cc1 [B, N-Isopropyl-N'-[4-(imidazol-4-yl)-phenyl]-formamidine]
EC50 (histamine H2-receptors [1]): 0.092 µM
ED50 (histamine H2-receptors [2]; [8]): 0.0129 mg/kg

C=CCNC=Nc1ccc(-c2c[nH]cn2)cc1 [C, N-Allyl-N'-[4-(imidazol-4-yl)-phenyl]-formamidine]
EC50 (histamine H2-receptors [1]): 0.093 µM
ED50 (histamine H2-receptors [2]; [8]): 0.024 mg/kg

CN/C(=N/CCSCc1nc[nH]c1C)NC#N [Cimetidine]
ED50 (histamine H2-receptors [2]; rat): 0.56 mg/kg
Potency as H2-antagonist (H2-receptor [3]; cimetidine vs metiamide): as potent as metiamide
Toxic side effects [4]: devoid of the toxic side effects of metiamide
Half-life [5]: relatively short

CCNC=Nc1ccc(-c2c[nH]cn2)cc1 [Compound A, N-Ethyl-N'-[4-(imidazol-4-yl)-phenyl]-formamidine]
EC50 (histamine H2-receptors [1]): 0.3 µM
ED50 (histamine H2-receptors [2]; [8]): 0.02 mg/kg

CCC(C)NC=Nc1ccc(-c2c[nH]cn2)cc1 (centres unmarked) [Compound E, N-sec-Butyl-N'-[4-(imidazol-4-yl)-phenyl]-formamidine]
EC50 (histamine H2-receptors [1]): 0.15 µM
ED50 (histamine H2-receptors [2]; [8]): 0.0223 mg/kg

CCCNC=Nc1ccc(-c2c[nH]cn2)cc1 [D, N-n-Propyl-N'-[4-(imidazol-4-yl)-phenyl]-formamidine]
EC50 (histamine H2-receptors [1]): 0.044 µM
ED50 (histamine H2-receptors [2]; [8]): 0.0111 mg/kg

CC(C)CNC=Nc1ccc(-c2c[nH]cn2)cc1 [F, N-Isobutyl-N'-[4-(imidazol-4-yl)-phenyl]-formamidine]
EC50 (histamine H2-receptors [1]): 0.065 µM
ED50 (histamine H2-receptors [2]; [8]): 0.0259 mg/kg

CC(C)=CCNC=Nc1ccc(-c2c[nH]cn2)cc1 [G]
EC50 (histamine H2-receptors [1]): 0.074 µM
ED50 (histamine H2-receptors [2]; [8]): 0.0559 mg/kg

C(=Nc1ccc(-c2c[nH]cn2)cc1)NCC1CC1 [H, N-Cyclopropylmethyl-N'-[4-(imidazol-4-yl)-phenyl]-formamidine]
EC50 (histamine H2-receptors [1]): 0.048 µM
ED50 (histamine H2-receptors [2]; [8]): 0.0235 mg/kg

C(=Nc1ccc(-c2c[nH]cn2)cc1)NC1CC1 [I, N-Cyclopropyl-N'-[4-(imidazol-4-yl)-phenyl]-formamidine]
EC50 (histamine H2-receptors [1]): 0.379 µM
ED50 (histamine H2-receptors [2]; [8]): 0.0366 mg/kg

C=CC(C)NC=Nc1ccc(-c2c[nH]cn2)cc1 (stereo not drawn) [J, N-(α-Methylallyl)-N'-[4-(imidazol-4-yl)-phenyl]-formamidine]
EC50 (histamine H2-receptors [1]): 0.168 µM
ED50 (histamine H2-receptors [2]; [8]): 0.042 mg/kg

CC(C)(C)CNC=Nc1ccc(-c2c[nH]cn2)cc1 [K, N-Neopentyl-N'-[4-(imidazol-4-yl)-phenyl]-formamidine]
EC50 (histamine H2-receptors [1]): 0.121 µM
ED50 (histamine H2-receptors [2]; [8]): 0.03 mg/kg

CC1(C)CC1CNC=Nc1ccc(-c2c[nH]cn2)cc1 (centres unmarked) [L, N-(2,2-Dimethyl)-cyclopropylmethyl-N'-[4-(imidazol-4-yl)-phenyl]-formamidine]
EC50 (histamine H2-receptors [1]): 0.5 µM
ED50 (histamine H2-receptors [2]; [8]): 0.034 mg/kg

C/N=C(\S)NCCSCc1[nH]cnc1C [Metiamide]
Potency and oral activity (H2-receptor [6]): more potent and orally active in man than burimamide
Toxic side effects [4]: toxic side effects (agranulocytosis)

CNC(=S)NCCCCc1cnc[nH]1 [burimamide]
Oral bioavailability [7]: seemed to lack sufficient oral bioavailability

CNC(=C[N+](=O)[O-])NCCSCc1ccc(CN(C)C)o1 [ranitidine]
Potency as inhibitor of gastric acid secretion (gastric acid secretion): more potent than cimetidine
Potency as H2-receptor antagonist (H2-receptor [3]): more potent than cimetidine

CNC(=NCCSCc1csc(N=C(N)N)n1)NC#N [tiotidine]
Potency as inhibitor of gastric acid secretion (gastric acid secretion): more potent than cimetidine
Potency as H2-receptor antagonist (H2-receptor [3]): more potent than cimetidine
